Where a name gives a salt, the structure may show the parent alone. Numbered stars: 1 amine (or outer) side, 2 acyl side, 3 side chain; on linkers, the order of the positions; unused ones are H or OH. Bridge positions count the residues as written; N and C are the ends. Square brackets hold non-standard residues; d marks the D form. Peptide text beside a SMILES is read from it. I, II: the chains in the order shown. Actinocin(9to1) = Cc1c2oc3c(C)ccc(C(=O)[*:1])c3nc-2c(C(=O)[*:2])c(N)c1=O; NMeV = CN[C@H](C(=O)O)C(C)C; Sar = CNCC(=O)O
What was measured:
[1] = cited from earlier work
[2] = previously untreated chronic myelogenous leukemia; cited from earlier work
[3] = cited from earlier work; remark: listed apart in the source
[4] = test system: U937 cells; assay: U937 apoptosis, Annexin V-FITC staining and flow cytometry; assay type: cell-based, Human; conditions: for induction of apoptosis: 24 hr, low dose of H7 (25 μM) or ceramide (5 μM)
Description: It is well known that ceramide functions as a negative cell regulator that can induce cell cycle arrest, senescence or apoptosis. In contrast, DAG stimulates cell proliferation and promotes cell survival, primarily via activation of PKC. To determine if the changes in the levels of ceramide and DAG resulting from SMS inhibition contribute to D609-induced apoptosis in U937 cells, the cells were incubated with vehicle, H7 (a PKC inhibitor), ceramide, or H7 plus ceramide. U937 cells (1×10^6/ml) were incubated with 5 μM C6-ceramide and 25 μM H7 alone or combination for 24 hr at 37° C. Apoptosis of the cells was measured by Annexin V-FITC staining and flow cyotmetry and expressed as percent of Annexin V positive cells. a, p<0.05 vs Control; b, p<0.05 vs H7- or C6-treated cells (FIG. 11).
In these experiments, U937 cells were pre-incubated with PMA (25 nM) for 30 min. and then were cultured with vehicle or D609 (150 μM) for 24 hrs.

[5] = test system: Porcine liver esterase (PLE); assay: Esterase-catalyzed hydrolysis of D609 prodrugs; assay type: in vitro ADME; conditions: for T1/2 / kobs: 300 μM, 0.1 unit/ml PLE, 37° C., pH 7.4
Description: FIG. 18A, FIG. 18B, FIG. 18C: Esterase-catalyzed hydrolysis of D609 prodrugs. Prodrugs (300 μM in 15% DMSO/PBS, pH 7.4), 1 (FIG. 18A), 2 (FIG. 18B) and 3 (FIG. 18C), were incubated at 37° C. in the presence of 0.1 unit/ml PLE. […] The data are presented as the mean±SEM of three independent assays.
To determine the hydrolytic property of D609 prodrugs 1, 2, and 3 (300 μM in 15% DMSO/PBS, pH7.4), these prodrugs were incubated with 0.1 unit/ml PLE at 37° C. After various times during incubation, the rate of hydrolysis of these D609 prodrugs was monitored by HPLC analysis. […] The concentration of D609 (μM) was calculated based on a linear D609-DTNB standard curve. The pseudo-first-order plots for the hydrolysis of these prodrugs were constructed from the logarithm of remaining ester versus time (FIG. 18). The end points of the reaction (150 min) were defined as when the hydrolysis of these prodrugs was over 99% complete and the release of D609 reached plateau. The pseudo-first-order rate constant (Kobs) and T1/2 (=0.693/Kobs) were calculated based on the slope of the linear portion of the curve for each of these prodrugs and are presented in Table 1 (Gilmer et al., 2002).

[6] = target: phospholipase C (Type XI from B. cereus) (Bacillus cereus, UniProt P09598); assay type: biochemical; conditions: 2 hrs at 37° C., pNPP 40 mM
Description: (§1) In this study, p-nitrophenyl-phosphorylcholine (pNPP, 40 mM) was incubated with 2 U/ml phospholipase C (Type XI from B. cereus) in the presence or absence of various concentrations of inhibitors for 2 hrs at 37° C. The amount of the cleaved substrate pNPP was quantified by determination of the optical density at 410 nm using an ELISA reader. The results are expressed as percent of vehicle control and presented as means±SEM (n=3) (FIG. 9A). NBD-C6-ceramide and PC were incubated with U937 cell lysates containing 50 μg protein in the presence or absence of various concentrations of inhibitors for 30 min at 30° C. The formation of NBD-C6-sphingomyelin as analyzed by TLC and quantified by determination of the fluorescent intensity of NBD-C6-sphingomyelin using a phosphorimager. The results are expressed as percent of vehicle control (FIG. 9B). U937 cells were incubated with different concentrations of inhibitors for 48 hours.

[7] = test system: sphingomyelin synthase (SMS); assay: SMS activity in U937 cell lysates with inhibitor added (cell lysate-based in vitro assay); assay type: biochemical, Human; conditions: 30 min at 30° C.
Description: as §1

[8] = test system: alkaline phosphatase; conditions: 222 μM, 3.125 U/ml, pH 9.0, 37° C.
[9] = Chevion et al., 1997; cited from earlier work

Sequence of phospholipase C (Type XI from B. cereus) (P09598 39-283 limits assumed): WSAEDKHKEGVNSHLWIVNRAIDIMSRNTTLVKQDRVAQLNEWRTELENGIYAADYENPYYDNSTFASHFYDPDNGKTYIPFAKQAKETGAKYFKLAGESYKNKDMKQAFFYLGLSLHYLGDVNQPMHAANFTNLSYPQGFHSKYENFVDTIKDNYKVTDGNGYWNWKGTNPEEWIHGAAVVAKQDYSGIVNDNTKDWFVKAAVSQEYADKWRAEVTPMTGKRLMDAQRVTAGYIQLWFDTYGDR

Cc1c2oc3c(C)ccc(C(=O)N[C@@H]4C(=O)N[C@H](C(C)C)C(=O)N5CCC[C@H]5C(=O)N(C)CC(=O)N(C)[C@@H](C(C)C)C(=O)O[C@@H]4C)c3nc-2c(C(=O)N[C@@H]2C(=O)N[C@H](C(C)C)C(=O)N3CCC[C@H]3C(=O)N(C)CC(=O)N(C)[C@@H](C(C)C)C(=O)O[C@@H]2C)c(N)c1=O [Actinomycin D] (I: T[dV]P[Sar][NMeV] / II: T[dV]P[Sar][NMeV]; ester I:1-I:C, II:1-II:C; linker I:N-II:N via Actinocin(9to1))
excreted intact into the bile ([1]; in vivo): Half of the dose
excreted intact into the urine ([1]; in vivo): 10%
half-life (elimination) ([1]; in vivo): about 36 hr
passage of the blood-brain barrier ([1]; in vivo): does not pass the blood-brain barrier

CS(=O)(=O)OCCCCOS(C)(=O)=O [Busulfan, 1,4-butanediol dimethanesulfonate]
adults obtaining hematologic remission [2]: Approximately 90%

O=C(O)CCCc1ccc(N(CCCl)CCCl)cc1 [Chlorambucil, 4-[bis(2-chlorethyl)amino] benzenebutanoic acid]
oral absorption ([1]; in vivo): rapidly and completely absorbed from the gastrointestinal tract

N.N.[Cl][Pt][Cl] [Cisplatin]
oral absorption ([1]; in vivo): not absorbed orally

COc1cccc2c1C(=O)c1c(O)c3c(c(O)c1C2=O)C[C@@](O)(C(C)=O)C[C@@H]3O[C@H]1C[C@H](N)[C@H](O)[C@H](C)O1 [Daunorubicin, 5,12-Naphthacenedione, (8S-cis)-8-acetyl-10-[(3-amino-2,3,6-trideoxy-a-L-lyxo-hexanopyranosyl)oxy]-7,8,9,10-tetrahydro-6,8,11 trihydroxy-10-methoxy-, hydrochloride]
oral absorption ([1]; in vivo): Oral absorption is poor
half-life (elimination) ([1]; in vivo): about 19 hr

COc1cccc2c1C(=O)c1c(O)c3c(c(O)c1C2=O)C[C@@](O)(C(=O)CO)C[C@@H]3O[C@H]1C[C@H](N)[C@H](O)[C@H](C)O1 [Doxorubicin, 5,12-Naphthacenedione, (8s-cis)-10-[(3-amino-2,3,6-trideoxy-α-L-lyxo-hexopyranosyl)oxy]-7,8,9,10-tetrahydro-6,8,11-trihydroxy-8-(hydroxyacetyl)-1-methoxy-hydrochloride]
oral absorption ([1]; in vivo): absorbed poorly
half-life (elimination) ([1]; in vivo): about 30 hr

O=NN(CCCl)C(=O)NC1CCCCC1 [Lomustine, 1-(2-chloro-ethyl)-3-cyclohexyl-1 nitrosourea]
radioactivity excreted as degradation products ([1]; oral, 30 mg/m^2 to 100 mg/m^2, within 24 hours): about half

CO[C@@]12[C@H](COC(N)=O)C3=C(C(=O)C(C)=C(N)C3=O)N1C[C@@H]1N[C@@H]12 [Mitomycin]
time required to reduce the serum concentration by 50% ([3]; 30 mg. bolus injection): 17 min
dose excreted unchanged in the urine ([3]; in vivo): Approximately 10%

CCCCCCCCCCCCCC(=O)O[C@@H]1[C@@H](C)[C@@]2(O)[C@@H](C=C(CO)C[C@]3(O)C(=O)C(C)=C[C@@H]23)[C@@H]2C(C)(C)[C@]12OC(C)=O [PMA]
effect on D609-induced apoptosis ([4]; PMA 25 nM 30 min before D609 150 μM, 24 hrs): partially attenuated D609-induced apoptosis

CC(=O)OCSC(=S)OC1CC2CC1C1CCCC21 (stereo not shown) [Prodrug 1, S-methyleneoxyacetyl D609]
T1/2 [5]: 3.34 min
kobs [5]: 0.2074 min⁻¹

CC(C)(C)C(=O)OCSC(=S)OC1CC2CC1C1CCCC21 (stereo not shown) [Prodrug 3, S-methyleneoxypivalyl D609]
T1/2 [5]: 23.22 min
kobs [5]: 0.02984 min⁻¹
% D609 (molar recovery of D609) ([5]; complete hydrolysis by esterase): 60%

CC1CNCCN1S(=O)(=O)c1cccc2cnccc12 (stereo not shown) [Prodrug H7]
induction of apoptosis [4]: modest

OC1CC2CC1C1CCCC21 (stereo not shown) [Tricyclodecanol]
inhibition of PC-PLC activity [6]: devoid of any of these activities
inhibition of SMS activity [7]: devoid of any of these activities

CC[C@]1(O)C[C@@H]2CN(CCc3c([nH]c4ccccc34)[C@@](C(=O)OC)(c3cc4c(cc3OC)N(C)[C@H]3[C@@](O)(C(=O)OC)[C@H](OC(C)=O)[C@]5(CC)C=CCN6CC[C@]43[C@@H]65)C2)C1 [Vinblastine]
oral absorption ([1]; in vivo): Unpredictable absorption
excreted intact into the urine ([1]; in vivo): Approximately 15%
recovered in the feces after biliary excretion ([1]; in vivo): about 10%
plasma half-life after distribution (first) ([1]; intravenous injection): approximately 1 hours
plasma half-life after distribution (second) ([1]; intravenous injection): ~72000 s
peak concentration in plasma ([1]; usual clinical doses): approximately 0.4 mM

CC[C@]1(O)C[C@H]2CN(CCc3c([nH]c4ccccc34)[C@@](C(=O)OC)(c3cc4c(cc3OC)N(C=O)[C@H]3[C@@](O)(C(=O)OC)[C@H](OC(C)=O)[C@]5(CC)C=CCN6CC[C@]43[C@@H]65)C2)C1 [Vincristine]
oral absorption ([1]; in vivo): Unpredictable absorption
terminal half-life ([1]; plasma): about 24 hours

CCCCCCCCCCCCCC=CC(O)C(CO)NC(=O)CCCCC (stereo not shown) [ceramide]
induction of apoptosis [4]: modest

CC(C)(C)OP(=O)(OCSC(=S)OC1CC2CC1C1CCCC21)OC(C)(C)C (stereo not drawn) [compound 7, S-(methylenoxy)-D609, di(t-butoxy)phosphoryl]
time to complete hydrolysis [8]: ≤ 60 min

S=C(S)OC1CCCCC1 [cyclohexyl xanthate]
inhibition of PC-PLC activity [6]: dose-dependently inhibited
inhibition of SMS activity [7]: had no effect

COc1cccc2c1C(=O)c1c(O)c3c(c(O)c1C2=O)C[C@@](O)([C@H](C)O)C[C@@H]3O[C@H]1C[C@H](N)[C@H](O)[C@H](C)O1 [daunorubicinol]
half-life (elimination) ([1]; in vivo): about 27 hr

O=C1O[C@H]([C@@H](O)CO)C(O)=C1O [vitamin C]
E1/2 [9]: 380 mV

— patent publication US20070244076A1, “Site and Rate Selective Prodrug Formulations of D609 with Antioxidant and Anticancer Activity” (priority 2003, published 2007)
